Test results published in patent EP0305968A2, “Compositions against protozoal diseases” (YEDA RESEARCH AND DEVELOPMENT COMPANY LIMITED, priority 1987, dated 1989).
Values after ≈ are worked out from the molar mass of the structure shown.

Tested on: Entamoeba histolytica
Test: Killing of Entamoeba histolytica trophozoites in culture, with particle ingestion
Format: cell-based
Conditions: drug alone
Source text: The particles were diol subsituted silica or aluminum- silicate particles Fig. 1), in which aldehyde groups can be formed by pretreatment with periodate that oxidizes vicinal hydroxyl groups and yields aldehyde groups. […] Schiff base was then interacted with sodium bisulfite to stabilize the bond (Fig. 2). […] One mg of dry weight silica particles contains 10⁷-10⁹ particles depending on the source.

## Cc1ncc([N+](=O)[O-])n1CCO [Metronidazole]
Entamoeba histolytica, over 24 h, read-out: concentration required to kill more than 95% of the trophozoites
  EC95: 1 to 5 µg/mL (≈ 5.84 to 29.2 µM)
1-5 µg/ml
  time required to kill more than 95% of the trophozoites: over 24 h
